# Measurements taken from ChEMBL document CHEMBL3046414, “Synthesis, anticancer, anti-HIV-1, and antimicrobial activity of some tricyclic triazino and triazolo[4,3-e]purine derivatives” (Med Chem Res, 2012).
# pIC50: −log10 of the molar value.
# What was measured:
# Pseudomonas aeruginosa [1] = assay: Antimicrobial activity against Pseudomonas aeruginosa ATCC 9027 after 24 hr by two-fold serial dilution method; type: functional; conditions: ATCC 9027, 24 h
# Proteus vulgaris [2] = assay: Antimicrobial activity against Proteus vulgaris ATCC 49132 after 24 hr by two-fold serial dilution method; type: functional; conditions: ATCC 49132, 24 h
# Salmonella typhi [3] = assay: Antimicrobial activity against Salmonella enterica subsp. enterica serovar Typhi ATCC 13311 after 24 hr by two-fold serial dilution method; type: functional; conditions: ATCC 13311, 24 h
# Bacillus spizizenii [4] = assay: Antimicrobial activity against Bacillus subtilis subsp. spizizenii ATCC 6633 after 24 hr by two-fold serial dilution method; type: functional; conditions: ATCC 6633, 24 h
# Staphylococcus aureus [5] = assay: Antimicrobial activity against Staphylococcus aureus NCTC 4163 after 24 hr by two-fold serial dilution method; type: functional; conditions: NCTC 4163, 24 h
# CCRF-CEM = assay: Cytotoxicity against Homo sapiens (human) CEM cells by XTT assay; type: cell-based
# Saccharomyces cerevisiae [6] = assay: Antimicrobial activity against Saccharomyces cerevisiae ATCC 9763 after 48 hr by agar cup diffusion technique; type: functional
# Candida albicans [7] = assay: Antimicrobial activity against Candida albicans NCTC 2708 after 48 hr by agar cup diffusion technique; type: functional
# Proteus vulgaris [8] = assay: Antimicrobial activity against Proteus vulgaris ATCC 49132 after 24 hr by agar cup diffusion technique; type: functional
# Escherichia coli = assay: Antimicrobial activity against Escherichia coli 5933 after 24 hr by agar cup diffusion technique; type: functional
# [9] = test system: Human immunodeficiency virus 1; assay: Antiviral activity against Human immunodeficiency virus 1 infected CEM cells assessed as inhibition of virus-induced cytopathic effect at 2 X 10^-5 M by XTT assay; type: functional; conditions: Human immunodeficiency virus 1, CCRF-CEM
# Bacillus spizizenii [10] = assay: Antimicrobial activity against Bacillus subtilis subsp. spizizenii ATCC 6633 after 24 hr by agar cup diffusion technique; type: functional
# Staphylococcus aureus [11] = assay: Antimicrobial activity against Staphylococcus aureus NCTC 4163 after 24 hr by agar cup diffusion technique; type: functional
# SF-268 = assay: Anticancer activity against Homo sapiens (human) SF268 cells assessed as cell growth at 100 uM after 48 hr by Alamar blue assay; type: functional; conditions: SF-268, 48 h, read-out: Activity
# Pseudomonas aeruginosa [12] = assay: Antimicrobial activity against Pseudomonas aeruginosa ATCC 9027 after 24 hr by agar cup diffusion technique; type: functional
# NCI-H460 = assay: Anticancer activity against Homo sapiens (human) NCI-H460 cells assessed as cell growth at 100 uM after 48 hr by Alamar blue assay; type: functional; conditions: NCI-H460, 48 h, read-out: Activity
# MCF7 = assay: Anticancer activity against Homo sapiens (human) MCF7 cells assessed as cell growth at 100 uM after 48 hr by Alamar blue assay; type: functional; conditions: MCF7, 48 h, read-out: Activity
# Aspergillus niger [13] = assay: Antimicrobial activity against Aspergillus niger ATCC 16404 after 48 hr by agar cup diffusion technique; type: functional
# Aspergillus niger [14] = assay: Antimicrobial activity against Aspergillus niger ATCC 16404 after 48 hr by two-fold serial dilution method; type: functional; conditions: ATCC 16404, 48 h
# [15] = test system: Human immunodeficiency virus 1; assay: Antiviral activity against Human immunodeficiency virus 1 infected CEM cells assessed as inhibition of virus-induced cytopathic effect at 2 X 10^-4 M by XTT assay; type: functional; conditions: Human immunodeficiency virus 1, CCRF-CEM
# Candida albicans [16] = assay: Antimicrobial activity against Candida albicans NCTC 2708 after 48 hr by two-fold serial dilution method; type: functional; conditions: NCTC 2708, 48 h
# Aspergillus terreus = assay: Antimicrobial activity against Aspergillus terreus after 48 hr by two-fold serial dilution method; type: functional
# Saccharomyces cerevisiae [17] = assay: Antimicrobial activity against Saccharomyces cerevisiae ATCC 9763 after 48 hr by two-fold serial dilution method; type: functional; conditions: ATCC 9763, 48 h
# Salmonella typhi [18] = assay: Antimicrobial activity against Salmonella enterica subsp. enterica serovar Typhi ATCC 13311 after 24 hr by agar cup diffusion technique; type: functional
SMILES,MIC (Pseudomonas aeruginosa [1]),MIC (Proteus vulgaris [2]),MIC (Staphylococcus aureus [5]),pIC50 (CCRF-CEM),inhibition zone (IZ) (Saccharomyces cerevisiae [6]),inhibition zone (IZ) (Candida albicans [7]),inhibition zone (IZ) (Proteus vulgaris [8]),inhibition zone (IZ) (Escherichia coli),inhibition zone (IZ) (Bacillus spizizenii [10]),inhibition zone (IZ) (Staphylococcus aureus [11]),inhibition zone (IZ) (Pseudomonas aeruginosa [12]),also measured
CC1(C)S[C@@H]2[C@H](NC(=O)[C@H](N)c3ccccc3)C(=O)N2[C@H]1C(=O)O [AMPICILLIN],100 µg/mL,50 µg/mL,5 µg/mL,–,–,–,–,–,–,–,–,MIC (Salmonella typhi [3]): 100 µg/mL; MIC (Bacillus spizizenii [4]): 5 µg/mL
CC(=O)c1n[nH]c2nc3c(=O)n(C)c(=O)n(C)c3n2c1=O,–,< 100 µg/mL,–,< 3.70,13 mm,13 mm,23 mm,14 mm,14 mm,–,–,inhibition at 20 µM [9]: 1.43%
Cn1c(=O)c2c(n(C)c1=O)n1c(-c3ccc(Cl)cc3)nnc1n2C,< 200 µg/mL,< 100 µg/mL,< 100 µg/mL,–,14 mm,12 mm,25 mm,12 mm,13 mm,22 mm,21 mm,growth at 100 µM (SF-268): 90%; growth at 100 µM (NCI-H460): 95%; growth at 100 µM (MCF7): 82%
Cn1c(=O)c2nc3[nH]nc(C(=O)O)c(=O)n3c2n(C)c1=O,–,< 200 µg/mL,–,< 3.70,14 mm,13 mm,21 mm,13 mm,14 mm,14 mm,16 mm,inhibition zone (IZ) (Aspergillus niger [13]): 20 mm; MIC (Aspergillus niger [14]): < 200 µg/mL; inhibition at 20 µM [9]: 3.73%
CCSc1nnc2n(C)c3c(=O)n(C)c(=O)n(C)c3n12,–,–,< 200 µg/mL,–,13 mm,11 mm,19 mm,12 mm,13 mm,20 mm,19 mm,–
Cn1c(=O)c2[nH]c(/N=N/c3c(N)n[nH]c3N)nc2n(C)c1=O,–,–,–,< 3.70,12 mm,11 mm,14 mm,–,10 mm,–,–,inhibition at 200 µM [15]: 30.5%
Cn1c(=O)c2nc3[nH]nc(C#N)c(=O)n3c2n(C)c1=O,–,< 100 µg/mL,–,< 3.70,14 mm,15 mm,22 mm,12 mm,–,14 mm,16 mm,inhibition at 200 µM [15]: 10.9%
CCOC(=O)c1n[nH]c2nc3c(=O)n(C)c(=O)n(C)c3n2c1=N,–,< 100 µg/mL,–,–,15 mm,17 mm,22 mm,15 mm,14 mm,16 mm,20 mm,growth at 100 µM (SF-268): 98%; growth at 100 µM (NCI-H460): 99%; growth at 100 µM (MCF7): 93%
Clc1ccccc1C(c1ccccc1)(c1ccccc1)n1ccnc1 [CLOTRIMAZOLE],–,–,–,–,–,–,–,–,–,–,–,MIC (Candida albicans [16]): 5 µg/mL; MIC (Aspergillus terreus): 10 µg/mL; MIC (Saccharomyces cerevisiae [17]): 5 µg/mL; MIC (Aspergillus niger [14]): 10 µg/mL
Cn1c(=O)c2c(n(C)c1=O)n1c(SCc3ccccc3)nnc1n2C,–,–,< 25 µg/mL,< 3.70,14 mm,11 mm,18 mm,12 mm,–,26 mm,19 mm,inhibition at 200 µM [15]: 35.5%
Cn1c(=O)c2c(n(C)c1=O)n1c(-c3ccccc3)nnc1n2C,–,–,–,–,15 mm,12 mm,19 mm,14 mm,15 mm,–,17 mm,growth at 100 µM (SF-268): 90%; growth at 100 µM (NCI-H460): 98%; inhibition zone (IZ) (Salmonella typhi [18]): 11 mm; growth at 100 µM (MCF7): 84%; inhibition zone (IZ) (Aspergillus niger [13]): 16 mm
Cn1c(=O)c2c(n(C)c1=O)n1c(-c3ccc(Br)cc3)nnc1n2C,< 200 µg/mL,< 100 µg/mL,–,–,13 mm,14 mm,22 mm,12 mm,11 mm,14 mm,20 mm,inhibition zone (IZ) (Aspergillus niger [13]): 22 mm; MIC (Aspergillus niger [14]): < 100 µg/mL
Cn1c(=O)c2c(n(C)c1=O)n1c(=S)[nH]nc1n2C,< 100 µg/mL,–,< 50 µg/mL,–,12 mm,11 mm,19 mm,12 mm,11 mm,24 mm,21 mm,–
CSc1nnc2n(C)c3c(=O)n(C)c(=O)n(C)c3n12,< 200 µg/mL,–,< 200 µg/mL,< 3.70,12 mm,11 mm,19 mm,12 mm,–,20 mm,20 mm,inhibition at 200 µM [15]: 4.86%
